Structures can show the parent of a compound that is named as a salt.

One experiment has as its system episomal HPV-16 DNA in W12-20850 cells. Description: W-12 cellular assay (episomal HPV-16 DNA, hybrid capture). The format is cell-based, HPV16. The settings on record: Human papillomavirus 16, 96 h; W12-20850 cells, four days incubation, episomal HPV-16 DNA quantified by hybrid capture, inhibition relative to untreated control cells; read-out: W-12.
With `Cc1ccc2[nH]c3c(c2c1)CCCC3Nc1ncccn1` (stereo not drawn) [Example 29, 6-Methyl-N-pyrimidin-2-yl-2,3,4,9-tetrahydro-1H-carbazol-1-amine], the IC50 stood at 252 nM.

In the case of `Brc1ccc2[nH]c3c(c2c1)CCCC3Nc1nc2ccccc2s1` (stereo not drawn) [Example 36, N-(1,3-Benzothiazol-2-yl)-6-bromo-2,3,4,9-tetrahydro-1H-carbazol-1-amine], the IC50 amounted to 72 nM.

Take `FC(F)(F)c1ccc(NC2CCCc3c2[nH]c2ccc(Br)cc32)nc1` (stereo not drawn) [Example 34, 6-Bromo-N-[5-(trifluoromethyl)pyridin-2-yl]-2,3,4,9-tetrahydro-1H-carbazol-1-amine]: the IC50 is under 10 nM.

Consider `Cc1cc(C)nc(NC2CCCc3c2[nH]c2ccc(Cl)cc32)n1` (stereo not drawn) [Example 26, 6-Chloro-N-(4,6-dimethylpyrimidin-2-yl)-2,3,4,9-tetrahydro-1H-carbazol-1-amine], for which the IC50 turned out to be 62 nM.

For `FC(F)(F)c1cnc(NC2CCCc3c2[nH]c2ccc(Br)cc32)nc1` (stereo not drawn) [Example 33, 6-Bromo-N-[5-(trifluoromethyl)pyrimidin-2-yl]-2,3,4,9-tetrahydro-1H-carbazol-1-amine], the IC50 came to 44 nM.

For the molecule `Clc1ccc2[nH]c3c(c2c1)CCCC3Nc1ncccn1` (stereo not drawn) [Example 23, 6-Chloro-N-pyrimidin-2-yl-2,3,4,9-tetrahydro-1H-carbazol-1-amine], the IC50 stood at 44 nM.

For `Cc1ccc(NC2CCCc3c2[nH]c2ccc(Cl)cc32)cc1` (stereo not drawn) [Example 18, 6-Chloro-N-(4-methylphenyl)-2,3,4,9-tetrahydro-1H-carbazol-1-amine], the IC50 was 19 nM.

As to `Brc1ccc2[nH]c3c(c2c1)CCCCC3Nc1ncccn1` (stereo not drawn) [Example 38, 2-Bromo-N-pyrimidin-2-yl-5,6,7,8,9,10-hexahydrocyclohepta[b]indol-6-amine], the IC50 was under 10 nM.

With `CCCc1cnc(NC2CCCc3c2[nH]c2ccc(Br)cc32)nc1` (stereo not drawn) [Example 28, 6-Bromo-N-(5-propylpyrimidin-2-yl)-2,3,4,9-tetrahydro-1H-carbazol-1-amine], the IC50 was determined as 15 nM.

Regarding `Cc1ccnc(NC2CCCc3c2[nH]c2ccc(Cl)cc32)n1` (stereo not drawn) [Example 25, 6-Chloro-N-(4-methylpyrimidin-2-yl)-2,3,4,9-tetrahydro-1H-carbazol-1-amine], the IC50 is 35 nM.

Turning to `c1cnc(NC2CCCc3c2[nH]c2ccccc32)nc1` (stereo not drawn) [Example 37, N-Pyrimidin-2-yl-2,3,4,9-tetrahydro-1H-carbazol-1-amine], the IC50 is 4500 nM.

With `Clc1ccc(NC2CCCc3c2[nH]c2ccc(Br)cc32)cc1Cl` (stereo not drawn) [Example 51, 6-Bromo-N-(3,4-dichlorophenyl)-2,3,4,9-tetrahydro-1H-carbazol-1-amine], the IC50 was found to be 22 nM.

Turning to `Clc1ccc(NC2CCCc3c2[nH]c2ccc(Cl)cc32)cc1` (stereo not drawn) [Example 16, 6-Chloro-N-(4-chlorophenyl)-2,3,4,9-tetrahydro-1H-carbazol-1-amine], the IC50 was 14 nM.

As to `COc1cccc(NC2CCCc3c2[nH]c2ccc(Br)cc32)c1` (stereo not drawn) [Example 45, 6-Bromo-N-(3-methoxyphenyl)-2,3,4,9-tetrahydro-1H-carbazol-1-amine], the IC50 was under 10 nM.

`COc1cc(OC)nc(NC2CCCc3c2[nH]c2ccc(Cl)cc32)n1` (stereo not drawn) [Example 24, 6-Chloro-N-(4,6-dimethoxypyrimidin-2-yl)-2,3,4,9-tetrahydro-1H-carbazol-1-amine]: the IC50 amounted to 30 nM.

In the case of `Clc1ccccc1NC1CCCc2c1[nH]c1ccc(Br)cc21` (stereo not drawn) [Example 49, 6-Bromo-N-(2-chlorophenyl)-2,3,4,9-tetrahydro-1H-carbazol-1-amine], the IC50 was under 10 nM.

As to `Fc1ccc(NC2CCCc3c2[nH]c2ccc(Cl)cc32)cc1` (stereo not drawn) [Example 17, 6-Chloro-N-(4-fluorophenyl)-2,3,4,9-tetrahydro-1H-carbazol-1-amine], the IC50 was found to be 23 nM.

On to `Brc1ccc2[nH]c3c(c2c1)CCCC3Nc1ccc2[nH]ccc2c1` (stereo not drawn) [Example 47, 6-Bromo-N-(1H-indol-5-yl)-2,3,4,9-tetrahydro-1H-carbazol-1-amine], for which the IC50 was 112 nM.

As to `COc1ccc(NC2CCCc3c2[nH]c2ccc(Cl)cc32)cc1` (stereo not drawn) [Example 15, 6-Chloro-N-(4-methoxyphenyl)-2,3,4,9-tetrahydro-1H-carbazol-1-amine], the IC50 was determined as 10 nM.

With `Clc1ccc2[nH]c3c(c2c1)CCCC3Nc1ccccc1` (stereo not drawn) [Example 14, 6-Chloro-N-phenyl-2,3,4,9-tetrahydro-1H-carbazol-1-amine], the IC50 was under 10 nM.

For `COc1ccccc1NC1CCCc2c1[nH]c1ccc(Br)cc21` (stereo not drawn) [Example 48, 6-Bromo-N-(2-methoxyphenyl)-2,3,4,9-tetrahydro-1H-carbazol-1-amine], the IC50 is 57 nM.

Take `Fc1ccc(NC2CCCc3c2[nH]c2ccc(Br)cc32)cc1` (stereo not drawn) [Example 21, 6-Bromo-N-(4-fluorophenyl)-2,3,4,9-tetrahydro-1H-carbazol-1-amine]: the IC50 is under 10 nM.

As to `Fc1ccccc1NC1CCCc2c1[nH]c1ccc(Br)cc21` (stereo not drawn) [Example 50, 6-Bromo-N-(2-fluorophenyl)-2,3,4,9-tetrahydro-1H-carbazol-1-amine], the IC50 is 70 nM.

With `COc1ccc(NC2CCCc3c2[nH]c2ccc(Br)cc32)cc1` (stereo not drawn) [Example 19, 6-Bromo-N-(4-methoxyphenyl)-2,3,4,9-tetrahydro-1H-carbazol-1-amine], the IC50 is under 10 nM.

Take `Brc1ccc2[nH]c3c(c2c1)CCCC3Nc1ccccc1` (stereo not drawn) [Example 13, 6-Bromo-N-phenyl-2,3,4,9-tetrahydro-1H-carbazol-1-amine]: the IC50 was 10 nM.

For `Clc1ccc(NC2CCCc3c2[nH]c2ccc(Br)cc32)cc1` (stereo not drawn) [Example 20, 6-Bromo-N-(4-chlorophenyl)-2,3,4,9-tetrahydro-1H-carbazol-1-amine], the IC50 is under 10 nM.

On to `N#Cc1ccc(NC2CCCc3c2[nH]c2ccc(Br)cc32)nc1` (stereo not drawn) [Example 35, 6-[(6-Bromo-2,3,4,9-tetrahydro-1H-carbazol-1-yl)amino]nicotinonitrile], for which the IC50 was found to be 30 nM.

Take `Fc1cccc(NC2CCCc3c2[nH]c2ccc(Br)cc32)c1` (stereo not drawn) [Example 46, 6-Bromo-N-(3-fluorophenyl)-2,3,4,9-tetrahydro-1H-carbazol-1-amine]: the IC50 was under 10 nM.

Staying with this experiment, now noted: Human papillomavirus 16, W12-20850, 96 h, read-out: W-12 (nM).
Take `Cc1cc(C)nc(NC2CCCc3c2[nH]c2ccc(Br)cc32)n1` (stereo not drawn) [Example 32, 6-Bromo-N-(4,6-dimethylpyrimidin-2-yl)-2,3,4,9-tetrahydro-1H-carbazol-1-amine hydrochloride]: the IC50 was found to be 12 nM.

Take `Brc1ccc2[nH]c3c(c2c1)CCCC3Nc1ncccn1` (stereo not drawn) [Example 22, 6-Bromo-N-pyrimidin-2-yl-2,3,4,9-tetrahydro-1H-carbazol-1-amine hydrochloride]: the IC50 was 97 nM.

For `COc1cc(OC)nc(NC2CCCc3c2[nH]c2ccc(C)cc32)n1` (stereo not drawn) [Example 31, N-(4,6-Dimethoxypyrimidin-2-yl)-6-methyl-2,3,4,9-tetrahydro-1H-carbazol-1-amine hydrochloride], the IC50 came out at 70 nM.

In the case of `Brc1ccc2[nH]c3c(c2c1)CCCC3Nc1ccccn1` (stereo not drawn) [Example 27, 6-Bromo-N-pyridin-2-yl-2,3,4,9-tetrahydro-1H-carbazol-1-amine hydrochloride], the IC50 came to 37 nM.

With `FC(F)(F)c1ccc2[nH]c3c(c2c1)CCCC3Nc1ccccc1` (stereo not drawn) [Example 43, N-Phenyl-6-(trifluoromethyl)-2,3,4,9-tetrahydro-1H-carbazol-1-amine hydrochloride], the IC50 was determined as 51 nM.
